Among the data in ChEMBL document CHEMBL1130819, “Synthesis and biological evaluation of 1,2-disubstituted carbonucleosides of 2-amino-6-substituted purine and 8-azapurine” (Bioorg Med Chem Lett, 1998) are EC50 and IC50 values, retold here.

pIC50: −log10 of the molar value. Converted amounts (≈) assume the structure as drawn.

The subject of the first experiment is Human alphaherpesvirus 3. The experiment in a line: Antiviral activity against Varicella-Zoster virus (07/1strain). The class given is functional, organism-based.
Details: not given
By EC50 is commonly meant the concentration needed to bring the measured effect to its halfway point. As to `Nc1nc(N)c2nnn([C@H]3CCC[C@H]3CO)c2n1`, a half-maximal response (EC50) required 45 µg/mL (≈ 181 µM).

The next experiment has as its system L1210. The experiment in a line: Antitumor activity was evaluated against L1210 cell line. The class given is functional, cell-based. Particulars: Mus musculus.
Usually pIC50 stands for the negative decadic logarithm of the IC50, by convention in mol/L. The molecule `Nc1nc(Cl)c2ncn([C@H]3CCC[C@H]3CO)c2n1` gave a pIC50 of 4.15.

Take `Nc1nc(N)c2ncn([C@H]3CCC[C@H]3CO)c2n1`: the negative logarithm of the IC50 (pIC50) was 3.95.

In turn, `Nc1nc(O)c2nnn([C@H]3CCC[C@H]3CO)c2n1` had a pIC50 of 4.10.

For the molecule `Nc1nc(N)c2nnn([C@H]3CCC[C@H]3CO)c2n1`, the pIC50 was 4.11.

Take `Nc1nc(Cl)c2nnn([C@H]3CCC[C@H]3CO)c2n1`: the negative logarithm of the IC50 (pIC50) is 4.15.

For `Nc1nc(O)c2ncn([C@H]3CCC[C@H]3CO)c2n1`, the negative-log IC50 (pIC50) was less than 3.70.

The subject of a further experiment is Human alphaherpesvirus 3. Briefly: Antiviral activity against Varicella-Zoster virus(YS/R strain). Type of experiment: functional, organism-based.
Details: not given
`Nc1nc(N)c2ncn([C@H]3CCC[C@H]3CO)c2n1` came in with an EC50 of 37 µg/mL (≈ 149 µM).

`Nc1nc(N)c2nnn([C@H]3CCC[C@H]3CO)c2n1` displayed an EC50 of 50 µg/mL (≈ 201 µM).

In a further experiment the test system is CCRF-CEM. Briefly: Antitumor activity was evaluated against CEM cell line. The class given is functional, cell-based. Particulars: Homo sapiens.
In turn, `Nc1nc(Cl)c2ncn([C@H]3CCC[C@H]3CO)c2n1` gave a pIC50 of 4.08.

`Nc1nc(N)c2ncn([C@H]3CCC[C@H]3CO)c2n1` had a pIC50 of 4.05. This pIC50 and that of the molecule before are within 0.2 log units of each other.

`Nc1nc(O)c2nnn([C@H]3CCC[C@H]3CO)c2n1` showed a negative-log IC50 (pIC50) of 4.06.

`Nc1nc(N)c2nnn([C@H]3CCC[C@H]3CO)c2n1` gave a pIC50 of 4.04.

With `Nc1nc(Cl)c2nnn([C@H]3CCC[C@H]3CO)c2n1`, the pIC50 was 4.28.

`Nc1nc(O)c2ncn([C@H]3CCC[C@H]3CO)c2n1` gave a pIC50 of less than 3.70.

For the next experiment, the system named is Human alphaherpesvirus 3. The experiment in a line: Antiviral activity against Varicella-Zoster virus(OKA strain). Type of experiment: functional, organism-based.
Details: not given
For the molecule `Nc1nc(N)c2nnn([C@H]3CCC[C@H]3CO)c2n1`, the EC50 was 32 µg/mL (≈ 128 µM).

In a further experiment the test system is MOLT-4. Briefly: Antitumor activity was evaluated against Molt4/C8 cell line. To be noted: Homo sapiens. The class given is functional, cell-based.
Molecule `Nc1nc(Cl)c2ncn([C@H]3CCC[C@H]3CO)c2n1` gave a pIC50 of 4.31.

In the case of `Nc1nc(N)c2ncn([C@H]3CCC[C@H]3CO)c2n1`, the pIC50 was 3.83. This pIC50 is 0.48 log units lower than that of the molecule before.

For `Nc1nc(O)c2nnn([C@H]3CCC[C@H]3CO)c2n1`, the pIC50 was 4.07. Compared with the last molecule, the pIC50 is 0.24 log units higher.

`Nc1nc(N)c2nnn([C@H]3CCC[C@H]3CO)c2n1`: the pIC50 was 3.92.

In turn, `Nc1nc(Cl)c2nnn([C@H]3CCC[C@H]3CO)c2n1` had a pIC50 of 4.12.

The molecule `Nc1nc(O)c2ncn([C@H]3CCC[C@H]3CO)c2n1` gave a pIC50 of less than 3.70.
